Counter-ions that a name gives are not always drawn. Some results are limits rather than exact numbers.

One test concerns the target T1, MASP-2 (CCP1-CCP2-SP) (Homo sapiens, UniProt O00187).
T1 construct: 15 μL of Enzyme MASP-2 (CCP1-CCP2-SP) in Assay Buffer
Briefly: Enzymatic assay for MASP-2 inhibitory activity (fluorogenic substrate). Format: biochemical. The procedure, abridged: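 MASP-2 (CCP1-CCP2-SP) cleaved a fluorogenic substrate based on the C2 cleavage site in 20 mM HEPES pH 7.4, 140 mM NaCl, 0.1% Tween 20 at room temperature. After 20 min the reaction was stopped with 0.1 M acetic acid and fluorescence read. % activity was normalized to DMSO-only and no-enzyme controls; IC50 taken as Ki.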

The target of another test is T2, human α-thrombin (Homo sapiens, UniProt P00734).
T2 construct: enzyme (human α-thrombin (BioPharm® Lab.)) in assay buffer; purchased BioPharm® Lab
Briefly: Enzymatic assay for thrombin (fluorogenic peptide substrate Boc-VPR-AMC). Format: biochemical. The procedure, abridged: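 Human α-thrombin was run with the fluorogenic substrate Boc-VPR-AMC in 20 mM Hepes pH 7.4, 140 mM NaCl, 0.1% Tween 20 at room temperature for 20 min, then stopped with 0.1 M acetic acid. % activity was normalized to DMSO and no-enzyme controls. Under linear conditions IC50 equalled Ki, except for tight-binding inhibitors.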

T1 sequence (O00187 445-686 limits assumed): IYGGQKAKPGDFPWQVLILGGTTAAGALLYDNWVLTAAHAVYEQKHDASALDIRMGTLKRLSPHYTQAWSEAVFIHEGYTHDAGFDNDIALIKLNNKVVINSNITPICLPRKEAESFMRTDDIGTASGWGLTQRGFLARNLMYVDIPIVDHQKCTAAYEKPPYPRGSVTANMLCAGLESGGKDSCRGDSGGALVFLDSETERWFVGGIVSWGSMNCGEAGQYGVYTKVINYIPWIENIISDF
T1 sequence (O00187 287-444 partner limits assumed): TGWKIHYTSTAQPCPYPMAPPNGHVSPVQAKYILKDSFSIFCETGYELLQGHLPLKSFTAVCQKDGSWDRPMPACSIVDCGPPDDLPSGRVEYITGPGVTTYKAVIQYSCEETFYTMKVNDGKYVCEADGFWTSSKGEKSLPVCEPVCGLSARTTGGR

For orientation: Ki means the dissociation constant of the complex between target and ligand, obtained from inhibition or displacement. For the compound `Cc1cc(C)cc(CNc2ncc3n(c2=O)[C@H](C(=O)NCc2cnc(N)c(Cl)c2)CC3)c1` [Compound 189, (S)-N-((6-amino-5-chloropyridin-3-yl)methyl)-3-((3,5-dimethylbenzyl)amino)-4-oxo-4,6,7,8-tetrahydropyrrolo[1,2-a]pyrazine-6-carboxamide], the Ki at MASP-2 (CCP1-CCP2-SP) is under 0.5 µM; on human α-thrombin, 0.5 to 2.5 µM.

Take `Cc1cc(F)cc(CNc2ncc3n(c2=O)[C@H](C(=O)N[C@H](C)c2ccc(N)nc2)CC3)c1` [Compound 191, (S)-N-((R)-1-(6-aminopyridin-3-yl)ethyl)-3-((3-fluoro-5-methylbenzyl)amino)-4-oxo-4,6,7,8-tetrahydropyrrolo[1,2-a]pyrazine-6-carboxamide trifluoroacetate]: the Ki is under 0.5 µM at MASP-2 (CCP1-CCP2-SP) and 2.5 to 10 µM at human α-thrombin.

Consider `Cc1cc(F)cc(CNc2ncc3n(c2=O)[C@H](C(=O)NCc2cnc(N)c(Cl)c2)CC3)c1` [Compound 192, (S)-N-((6-amino-5-chloropyridin-3-yl)methyl)-3-((3-fluoro-5-methylbenzyl)amino)-4-oxo-4,6,7,8-tetrahydropyrrolo[1,2-a]pyrazine-6-carboxamide trifluoroacetate], for which the Ki at MASP-2 (CCP1-CCP2-SP) is under 0.5 µM; on human α-thrombin, 0.5 to 2.5 µM.

With `Cc1ccc(C)c(CNc2ncc3n(c2=O)[C@H](C(=O)N[C@H](C)c2ccc(N)nc2)CC3)c1` [Compound 193, (S)-N-((R)-1-(6-aminopyridin-3-yl)ethyl)-3-((2,5-dimethylbenzyl)amino)-4-oxo-4,6,7,8-tetrahydropyrrolo[1,2-a]pyrazine-6-carboxamide trifluoroacetate], the Ki at MASP-2 (CCP1-CCP2-SP) is under 0.5 µM; on human α-thrombin, 2.5 to 10 µM.

With `CCc1cccc(CNc2ncc3n(c2=O)[C@H](C(=O)N[C@H](C)c2ccc(N)nc2)CC3)c1` [Compound 195, (S)-N-((R)-1-(6-aminopyridin-3-yl)ethyl)-3-((3-ethylbenzyl)amino)-4-oxo-4,6,7,8-tetrahydropyrrolo[1,2-a]pyrazine-6-carboxamide trifluoroacetate], the inhibition constant (Ki) on MASP-2 (CCP1-CCP2-SP) was under 0.5 µM; at human α-thrombin, 2.5 to 10 µM.

In the case of `Cc1ccc(F)cc1CNc1ncc2n(c1=O)[C@H](C(=O)N[C@H](C)c1ccc(N)nc1)CC2` [Compound 196, (S)-N-((R)-1-(6-aminopyridin-3-yl)ethyl)-3-((5-fluoro-2-methylbenzyl)amino)-4-oxo-4,6,7,8-tetrahydropyrrolo[1,2-a]pyrazine-6-carboxamide trifluoroacetate], the Ki at MASP-2 (CCP1-CCP2-SP) was under 0.5 µM; on human α-thrombin, 10 to 25 µM.

Take `Cc1cc(C)cc(CNc2ncc3n(c2=O)[C@H](C(=O)N[C@H](C)c2ccc(N)nc2)CC3)c1` [Compound 198, (S)-N-((R)-1-(6-aminopyridin-3-yl)ethyl)-3-((3,5-dimethylbenzyl)amino)-4-oxo-4,6,7,8-tetrahydropyrrolo[1,2-a]pyrazine-6-carboxamide trifluoroacetate]: the values for the Ki at MASP-2 (CCP1-CCP2-SP) and on human α-thrombin were under 0.5 µM and 2.5 to 10 µM, respectively.

On to `Cc1ccc(F)c(CNc2ncc3n(c2=O)[C@H](C(=O)N[C@H](C)c2ccc(N)nc2)CC3)c1` [Compound 199, (S)-N-((R)-1-(6-aminopyridin-3-yl)ethyl)-3-((2-fluoro-5-methylbenzyl)amino)-4-oxo-4,6,7,8-tetrahydropyrrolo[1,2-a]pyrazine-6-carboxamide trifluoroacetate], for which the Ki is under 0.5 µM on MASP-2 (CCP1-CCP2-SP) and 2.5 to 10 µM at human α-thrombin.

`COc1cc(F)cc(CNc2ncc3n(c2=O)[C@H](C(=O)N[C@H](C)c2ccc(N)nc2)CC3)c1` [Compound 200, (S)-N-((R)-1-(6-aminopyridin-3-yl)ethyl)-3-((3-fluoro-5-methoxybenzyl)amino)-4-oxo-4,6,7,8-tetrahydropyrrolo[1,2-a]pyrazine-6-carboxamide trifluoroacetate]: the Ki at MASP-2 (CCP1-CCP2-SP) was under 0.5 µM; at human α-thrombin, 2.5 to 10 µM.

`C[C@@H](NC(=O)[C@@H]1CCc2cnc(NCc3cccc(-c4ccccc4)c3)c(=O)n21)c1ccc(N)nc1` [Compound 201, (S)-3-(([1,1′-biphenyl]-3-ylmethyl)amino)-N-((R)-1-(6-aminopyridin-3-yl)ethyl)-4-oxo-4,6,7,8-tetrahydropyrrolo[1,2-a]pyrazine-6-carboxamide]: the Ki is under 0.5 µM at MASP-2 (CCP1-CCP2-SP) and over 25 µM on human α-thrombin.

On to `Cc1ccccc1CNc1ncc2n(c1=O)[C@H](C(=O)N[C@H](C)c1ccc(N)nc1)CC2` [Compound 202, (S)-N-((R)-1-(6-aminopyridin-3-yl)ethyl)-3-((2-methylbenzyl)amino)-4-oxo-4,6,7,8-tetrahydropyrrolo[1,2-a]pyrazine-6-carboxamide], for which the Ki at MASP-2 (CCP1-CCP2-SP) was under 0.5 µM; on human α-thrombin it was 10 to 25 µM.

Turning to `Cc1cc(CNc2ncc3n(c2=O)[C@H](C(=O)N[C@H](C)c2ccc(N)nc2)CC3)cc(C(F)(F)F)c1` [Compound 203, (S)-N-((R)-1-(6-aminopyridin-3-yl)ethyl)-3-((3-methyl-5-(trifluoromethyl)benzyl)amino)-4-oxo-4,6,7,8-tetrahydropyrrolo[1,2-a]pyrazine-6-carboxamide], the figures for the Ki on MASP-2 (CCP1-CCP2-SP) and at human α-thrombin were under 0.5 µM and 2.5 to 10 µM, respectively.

In the case of `Cc1cc(F)cc(CNc2ncc3n(c2=O)[C@H](C(=O)NCc2cnc4ccccn24)CC3)c1` [Compound 204, trifluoroacetate], the Ki is 2.5 to 10 µM at MASP-2 (CCP1-CCP2-SP) and over 25 µM on human α-thrombin.

Take `Cc1cc(F)cc(CNc2ncc3n(c2=O)[C@H](C(=O)NCc2ccc(CN)cc2C)CC3)c1` [Compound 205, (S)—N-(4-(aminomethyl)-2-methylbenzyl)-3-((3-fluoro-5-methylbenzyl)amino)-4-oxo-4,6,7,8-tetrahydropyrrolo[1,2-a]pyrazine-6-carboxamide trifluoroacetate]: the Ki was under 0.5 µM on MASP-2 (CCP1-CCP2-SP) and 2.5 to 10 µM on human α-thrombin.

On to `Cc1cc(F)cc(CNc2ncc3n(c2=O)[C@H](C(=O)NCc2c(C)cc(CN)cc2C)CC3)c1` [Compound 206, trifluoroacetate], for which the Ki at MASP-2 (CCP1-CCP2-SP) lay within 0.5 to 2.5 µM; at human α-thrombin, 10 to 25 µM.

Consider `CC(C)c1cccc(CNc2ncc3n(c2=O)[C@H](C(=O)NCc2ccc(N)nc2)CC3)c1` [Compound 207, (S)—N-((6-aminopyridin-3-yl)methyl)-3-((3-isopropylbenzyl)amino)-4-oxo-4,6,7,8-tetrahydropyrrolo[1,2-a]pyrazine-6-carboxamide trifluoroacetate], for which the Ki at MASP-2 (CCP1-CCP2-SP) and at human α-thrombin was under 0.5 µM throughout.

`Cc1nc(N)ccc1CNC(=O)[C@@H]1CCc2cnc(NCc3cccc(C(C)C)c3)c(=O)n21` [Compound 208]: the inhibition constant Ki on MASP-2 (CCP1-CCP2-SP) and on human α-thrombin was under 0.5 µM in each case.

On to `Cc1cc(F)cc(CNc2nc(-c3ccnn3C)c3n(c2=O)[C@H](C(=O)NCc2cc4c(s2)CNC4)CC3)c1` [Compound 209, (S)—N-((5,6-dihydro-4H-thieno[2,3-c]pyrrol-2-yl)methyl)-3-((3-fluoro-5-methylbenzyl)amino)-1-(1-methyl-1H-pyrazol-5-yl)-4-oxo-4,6,7,8-tetrahydropyrrolo[1,2-a]pyrazine-6-carboxamide trifluoroacetate], for which the Ki on MASP-2 (CCP1-CCP2-SP) was under 0.5 µM; on human α-thrombin it was 2.5 to 10 µM.

On to `Cc1cc(F)cc(CNc2nc(C3CC3)c3n(c2=O)[C@H](C(=O)NCc2ccc(N)nc2C)CC3)c1` [Compound 210, (S)—N-((6-amino-2-methylpyridin-3-yl)methyl)-1-cyclopropyl-3-((3-fluoro-5-methylbenzyl)amino)-4-oxo-4,6,7,8-tetrahydropyrrolo[1,2-a]pyrazine-6-carboxamide trifluoroacetate], for which the Ki was under 0.5 µM at MASP-2 (CCP1-CCP2-SP) and 0.5 to 2.5 µM at human α-thrombin.

As for `Cc1cc(F)cc(CNc2nc(C(C)C)c3n(c2=O)[C@H](C(=O)NCc2ccc(N)nc2C)CC3)c1` [Compound 211, (S)-N-((6-amino-2-methylpyridin-3-yl)methyl)-3-((3-fluoro-5-methylbenzyl)amino)-1-isopropyl-4-oxo-4,6,7,8-tetrahydropyrrolo[1,2-a]pyrazine-6-carboxamide trifluoroacetate], the Ki on MASP-2 (CCP1-CCP2-SP) and on human α-thrombin was under 0.5 µM in each case.

As to `Cc1cc(F)cc(CNc2nc(Cl)c3n(c2=O)[C@H](C(=O)NCc2ccc(N)nc2C)CC3)c1` [Compound 212, (S)—N-((6-amino-2-methylpyridin-3-yl)methyl)-1-chloro-3-((3-fluoro-5-methylbenzyl)amino)-4-oxo-4,6,7,8-tetrahydropyrrolo[1,2-a]pyrazine-6-carboxamide trifluoroacetate], the Ki at MASP-2 (CCP1-CCP2-SP) was under 0.5 µM; on human α-thrombin, 2.5 to 10 µM.

In the case of `Cc1cc(F)cc(CNc2nc(-c3cnn(C(F)F)c3)c3n(c2=O)[C@H](C(=O)NCc2ccc(N)nc2C)CC3)c1` [Compound 214, (S)—N-((6-amino-2-methylpyridin-3-yl)methyl)-1-(1-(difluoromethyl)-1H-pyrazol-4-yl)-3-((3-fluoro-5-methylbenzyl)amino)-4-oxo-4,6,7,8-tetrahydropyrrolo[1,2-a]pyrazine-6-carboxamide trifluoroacetate], the Ki on MASP-2 (CCP1-CCP2-SP) is under 0.5 µM; at human α-thrombin, over 25 µM.

Consider `Cc1cc(F)cc(CNc2nc(-c3cnn(C(F)F)c3)c3n(c2=O)[C@H](C(=O)NCc2cc4cnccc4[nH]2)CC3)c1` [Compound 215, (S)-N-((1H-pyrrolo[3,2-c]pyridin-2-yl)methyl)-1-(1-(difluoromethyl)-1H-pyrazol-4-yl)-3-((3-fluoro-5-methylbenzyl)amino)-4-oxo-4,6,7,8-tetrahydropyrrolo[1,2-a]pyrazine-6-carboxamide trifluoroacetate], for which the figures for the Ki on MASP-2 (CCP1-CCP2-SP) and on human α-thrombin were under 0.5 µM and over 25 µM, respectively.
